Results on 26 compounds are retold here after patent US20230373989A1, “N-PHENYLAMINOCARBONYL PYRIDINO-, PYRIMIDINO AND BENZO-TROPANES AS MODULATORS OF GPR65” (PATHIOS THERAPEUTICS LIMITED, priority 2020, published 2023).

The target in the first experiment is T1, human recombinant GPR65 (Homo sapiens, UniProt Q8IYL9).
T1 construct: host or cells: 1321N1 human astrocytoma cells (1321N1-hrGPR65)
T1 sequence (Q8IYL9 whole entry): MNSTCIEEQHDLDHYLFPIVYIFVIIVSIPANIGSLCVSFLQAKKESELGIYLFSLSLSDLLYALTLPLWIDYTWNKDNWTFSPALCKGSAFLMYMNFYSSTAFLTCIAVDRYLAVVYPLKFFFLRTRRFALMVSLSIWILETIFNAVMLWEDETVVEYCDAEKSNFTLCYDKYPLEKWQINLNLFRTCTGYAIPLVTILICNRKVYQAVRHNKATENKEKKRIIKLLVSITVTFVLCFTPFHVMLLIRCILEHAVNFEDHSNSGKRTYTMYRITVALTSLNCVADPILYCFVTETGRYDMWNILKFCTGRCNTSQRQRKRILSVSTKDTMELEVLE
The experiment can be described thus: Human GPR65 cAMP HTRF antagonist assay. The experiment is classed as cell-based.
Conditions: not given
The source says:
In one preferred embodiment, the compound prevents the increase in cytoplasmic cAMP levels expected following GPR65 activation at acidic pH. This prevention of cAMP accumulation in turn prevents downstream signalling through ICER, as described above. The “Human GPR65 cyclic adenosine monophosphate (cAMP) Homogeneous Time Resolved Fluorescence (HTRF) antagonist assay”, or simply “cAMP assay”, as described in the accompanying examples, can be used to measure the potency of GPR65 modulators, which is expressed as the concentration of compound required to reduce the increase in cAMP concentration upon GPR65 activation by 50% (i.e. an IC50).
Human GPR65 Cyclic Adenosine Monophosphate (cAMP) Homogeneous Time Resolved Fluorescence (HTRF) Antagonist Assay Procedure
IC50 data was obtained by the following procedure:
1321N1 human astrocytoma cells stably expressing human recombinant GPR65 (1321N1-hrGPR65 cells, EuroscreenFast) were cultured according to the vendor's instructions.
Compounds were tested for their ability to antagonise GPR65, through measuring the concentration of cytoplasmic cAMP following treatment of the cells at a pH of 7.2 to activate GPR65 signalling and addition of the compound to be tested. The extent to which the expected rise in cAMP concentration upon GPR65 activation was suppressed by the added compound is indicative of its potency. The assay was carried out according to EuroscreenFast assay methodology as follows.
On the day of the assay, test compounds were added to 384-well, low volume, white microtiter plates by acoustic dispensing. KRH buffer (5 mM KCl, 1.25 mM MgSO4, 124 mM NaCl, 25 mM HEPES, 13.3 mM Glucose, 1.25 mM KH2PO4 and 1.45 mM CaCl2) was adjusted to pH 6.5, pH 7.6 and pH 8.4 by adding NaOH. 1321N1-hGPR65 cells were rapidly thawed and diluted in KRH, pH 7.6 prior to centrifugation at 300×g for 5 min and resuspension in assay buffer (KRH, pH 7.6, supplemented with 1 mM 3-isobutyl-1-methylxanthine (IBMX) and 200 μM ethylenediaminetetraacetic acid (EDTA)). Cells were added to assay plates at a density of 2,000 cells per well in a volume of 5 μl. Assay plates were briefly centrifuged at 100×g and then incubated at room temperature for 30 min. Cells were stimulated by the addition of 5 μL KRH, pH 6.5, to achieve an assay pH of 7.2, while control wells received 5 μl KRH, pH 8.4 to achieve an assay pH of 7.9. Assay plates were briefly centrifuged at 100×g and then incubated at room temperature for 30 min.
Accumulation of cAMP was detected by cAMP HTRF kit (Cisbio). d2-labeled cAMP and cryptate-labeled anti-cAMP antibody in Lysis and Detection Buffer (Cisbio) were added to assay plates, and the plates were incubated at room temperature for 1 h. HTRF measurements were performed using a Pherastar FSX instrument. Acceptor and donor emission signals were measured at 665 nm and 620 nm, respectively, and HTRF ratios were calculated as signal665 nm/signal620 nm×104. Data were normalised to high and low control values and fitted with 4-parameter logistic regression to determine hGPR65 IC50 values for the test compounds, which are shown in Table 1.
On to `O=C(Nc1ccc(C(F)(F)F)c(Cl)c1)N1C2CCC1c1cnc(F)nc1C2` (racemic) [Compound 45, (±)-N-(3-Chloro-4-(trifluoromethyl)phenyl)-2-fluoro-6,7,8,9-tetrahydro-5H-5,8-epiminocyclohepta[d]pyrimidine-10-carboxamide], for which the 50% inhibitory concentration (IC50) is < 0.5 µM.

On to `O=C(Nc1ccc(Cl)c(Cl)c1)N1C2CCC1c1cnc(F)nc1C2` (racemic) [Compound 46, (±)-N-(3,4-Dichlorophenyl)-2-fluoro-6,7,8,9-tetrahydro-5H-5,8-epiminocyclohepta[d]pyrimidine-10-carboxamide], for which the IC50 was < 0.5 µM.

On to `O=C(Nc1ccc(Cl)c(Cl)c1)N1C2CCC1c1cncnc1C2` (racemic) [Compound 48, (±)-N-(3,4-dichlorophenyl)-6,7,8,9-tetrahydro-5H-5,8-epiminocyclohepta[d]pyrimidine-10-carboxamide], for which the IC50 is < 0.5 µM.

`O=C(Nc1ccc(Cl)c(Cl)c1)N1C2CCC1c1cc[n+]([O-])cc1C2` (racemic) [Compound 58, (±)-10-((3,4-Dichlorophenyl)carbamoyl)-6,7,8,9-tetrahydro-5H-5,8-epiminocyclohepta[c]pyridine 2-oxide]: the IC50 was < 0.5 µM.

Take `O=C(Nc1ccc(Cl)c(Cl)c1)N1C2CCC1c1ccc(Cl)cc1C2` (racemic) [Compound 60, (±)-2-Chloro-N-(3,4-dichlorophenyl)-6,7,8,9-tetrahydro-5H-5,8-epiminobenzo[7]annulene-10-carboxamide]: the concentration for half-maximal inhibition (IC50) is < 0.5 µM.

With `O=C(Nc1ccc(Cl)c(Cl)c1)N1C2CCC1c1cnc(F)cc1C2` (racemic) [Compound 67, (±)-N-(3,4-Dichlorophenyl)-3-fluoro-6,7,8,9-tetrahydro-5H-6,9-epiminocyclohepta[c]pyridine-10-carboxamide], the IC50 is 0.5 to 5 µM.

Staying with this experiment, now noted: 1321N1-hrGPR65 cells, assay pH 7.2, cAMP HTRF; read-out: hGPR65 IC50 (activity class).
For `O=C(Nc1ccc(C(F)(F)F)c(Cl)c1)N1C2CCC1c1cnccc1C2` (racemic) [Compound 37, (±)-N-(3-Chloro-4-(trifluoromethyl)phenyl)-6,7,8,9-tetrahydro-5H-6,9-epiminocyclohepta[c]pyridine-10-carboxamide], the IC50 was 0.5 to 5 µM.

As for `O=C(Nc1ccc(C(F)(F)F)c(Cl)c1)N1C2CCC1c1c[nH]c(=O)nc1C2=NO` (racemic) [Compound 47, (±)-N-(3-Chloro-4-(trifluoromethyl)phenyl)-9-(hydroxyimino)-2-oxo-3,5,6,7,8,9-hexahydro-2H-5,8-epiminocyclohepta[d]pyrimidine-10-carboxamide], the concentration for half-maximal inhibition (IC50) lay in the range of 0.5 to 5 µM.

Take `O=C(Nc1ccc(Cl)cc1)N1C2CCC1c1cncnc1C2` (racemic) [Compound 49, (±)-N-(4-Chlorophenyl)-6,7,8,9-tetrahydro-5H-5,8-epiminocyclohepta[d]pyrimidine-10-carboxamide]: the half-maximal inhibitory concentration (IC50) is > 5 µM.

`O=C(Nc1cccc(Cl)c1)N1C2CCC1c1cncnc1C2` (racemic) [Compound 50, (±)-N-(3-Chlorophenyl)-6,7,8,9-tetrahydro-5H-5,8-epiminocyclohepta[d]pyrimidine-10-carboxamide]: the IC50 was > 5 µM.

Regarding `O=C(Nc1cc(Cl)ccc1F)N1C2CCC1c1cncnc1C2` (racemic) [Compound 51, (±)-N-(5-Chloro-2-fluorophenyl)-6,7,8,9-tetrahydro-5H-5,8-epiminocyclohepta[d]pyrimidine-10-carboxamide], the half-inhibitory concentration (IC50) lay in the range of 0.5 to 5 µM.

As to `O=C(Nc1ccc(C(F)(F)F)c(Cl)c1)N1C2CCC1c1ccccc1C2` (racemic) [Compound 54, (±)-N-(3-Chloro-4-(trifluoromethyl)phenyl)-6,7,8,9-tetrahydro-5H-5,8-epiminobenzo[7]annulene-10-carboxamide], the IC50 was 0.5 to 5 µM.

On to `O=C(Nc1ccc(Cl)c(C(F)(F)F)c1)N1C2CCC1c1ccccc1C2` (racemic) [Compound 55, (±)-N-(4-Chloro-3-(trifluoromethyl)phenyl)-6,7,8,9-tetrahydro-5H-5,8-epiminobenzo[7]annulene-10-carboxamide], for which the IC50 was in the range of 0.5 to 5 µM.

Take `COc1ccc2c(c1)CC1CCC2N1C(=O)Nc1ccc(Cl)c(Cl)c1` (racemic) [Compound 56, (±)-N-(3,4-Dichlorophenyl)-2-methoxy-6,7,8,9-tetrahydro-5H-5,8-epiminobenzo[7]annulene-10-carboxamide]: the 50% inhibitory concentration (IC50) lay within 0.5 to 5 µM.

As to `O=C(Nc1ccc(Cl)c(Cl)c1)N1C2CCC1c1ccc(O)cc1C2` (racemic) [Compound 57, (±)-N-(3,4-Dichlorophenyl)-2-hydroxy-6,7,8,9-tetrahydro-5H-5,8-epiminobenzo[7]annulene-10-carboxamide], the IC50 fell in the range of 0.5 to 5 µM.

With `O=C(Nc1ccc(Cl)c(Cl)c1)N1C2CCC1c1c[n+]([O-])ccc1C2` (racemic) [Compound 59, (±)-10-((3,4-Dichlorophenyl)carbamoyl)-6,7,8,9-tetrahydro-5H-6,9-epiminocyclohepta[c]pyridine 2-oxide], the IC50 was > 5 µM.

In the case of `Nc1nccc2c1C1CCC(C2)N1C(=O)Nc1ccc(Cl)c(Cl)c1` (racemic) [Compound 61, (±)-1-Amino-N-(3,4-dichlorophenyl)-6,7,8,9-tetrahydro-5H-6,9-epiminocyclohepta[c]pyridine-10-carboxamide], the IC50 fell in the range of 0.5 to 5 µM.

For `Nc1cc2c(cn1)C1CCC(C2)N1C(=O)Nc1ccc(Cl)c(Cl)c1` (racemic) [Compound 62, (±)-3-amino-N-(3,4-dichlorophenyl)-6,7,8,9-tetrahydro-5H-6,9-epiminocyclohepta[c]pyridine-10-carboxamide], the IC50 is > 5 µM.

As for `Nc1nccc2c1CC1CCC2N1C(=O)Nc1ccc(Cl)c(Cl)c1` (racemic) [Compound 63, (±)-1-amino-N-(3,4-dichlorophenyl)-6,7,8,9-tetrahydro-5H-5,8-epiminocyclohepta[c]pyridine-10-carboxamide], the half-maximal inhibitory concentration (IC50) was > 5 µM.

`Nc1cc2c(cn1)CC1CCC2N1C(=O)Nc1ccc(Cl)c(Cl)c1` (racemic) [Compound 64, (±)-3-Amino-N-(3,4-dichlorophenyl)-6,7,8,9-tetrahydro-5H-5,8-epiminocyclohepta[c]pyridine-10-carboxamide]: the IC50 was in the range of 0.5 to 5 µM.

Turning to `CC(C)(C)Nc1nccc2c1CC1CCC2N1C(=O)Nc1ccc(Cl)c(Cl)c1` (racemic) [Compound 65, (±)-1-(tert-Butylamino)-N-(3,4-dichlorophenyl)-6,7,8,9-tetrahydro-5H-5,8-epiminocyclohepta[c]pyridine-10-carboxamide], the IC50 lay in the range of 0.5 to 5 µM.

Turning to `CC(C)(C)Nc1cc2c(cn1)CC1CCC2N1C(=O)Nc1ccc(Cl)c(Cl)c1` (racemic) [Compound 66, (±)-3-(tert-Butylamino)-N-(3,4-dichlorophenyl)-6,7,8,9-tetrahydro-5H-5,8-epiminocyclohepta[c]pyridine-10-carboxamide], the 50% inhibitory concentration (IC50) lay in the range of 0.5 to 5 µM.

On to `O=C(Nc1ccc(Cl)c(Cl)c1)N1C2CCC1c1c(ccnc1F)C2` (racemic) [Compound 68, (±)-N-(3,4-Dichlorophenyl)-1-fluoro-6,7,8,9-tetrahydro-5H-6,9-epiminocyclohepta[c]pyridine-10-carboxamide], for which the concentration for half-maximal inhibition (IC50) lay in the range of 0.5 to 5 µM.

With `O=C(Nc1ccc(Cl)c(Cl)c1)N1C2CCC1c1cc(F)ncc1C2` (racemic) [Compound 69, (±)-N-(3,4-Dichlorophenyl)-3-fluoro-6,7,8,9-tetrahydro-5H-5,8-epiminocyclohepta[c]pyridine-10-carboxamide], the IC50 is 0.5 to 5 µM.

Turning to `O=C(Nc1ccc(C(F)(F)F)c(Cl)c1)N1C2CCC1c1ccc(Cl)cc1C2` (racemic) [Compound 71, (±)-2-Chloro-N-(3-chloro-4-(trifluoromethyl)phenyl)-6,7,8,9-tetrahydro-5H-5,8-epiminobenzo[7]annulene-10-carboxamide], the 50% inhibitory concentration (IC50) lay in the range of 0.5 to 5 µM.

As to `N#Cc1ccc2c(c1)CC1CCC2N1C(=O)Nc1ccc(Cl)c(Cl)c1` (racemic) [Compound 72, (±)-2-Cyano-N-(3,4-dichlorophenyl)-6,7,8,9-tetrahydro-5H-5,8-epiminobenzo[7]annulene-10-carboxamide], the half-inhibitory concentration (IC50) was 0.5 to 5 µM.
